Reference: ChEMBL document CHEMBL3351936, “Novel 25-hydroxyprotopanaxadiol derivatives incorporating chloroacetyl chloride and their anti-tumor evaluation” (Bioorg Med Chem Lett, 2014)

Legend:
[1] = Antiproliferative activity against human BGC823 cells assessed as cell-growth inhibition after 48 hrs by MTT assay; format: functional, cell-based; settings: BGC-823, 48 h
HeLa = assay: Antiproliferative activity against human HeLa cells assessed as cell-growth inhibition after 48 hrs by MTT assay; format: functional, cell-based
MCF7 = assay: Antiproliferative activity against human MCF7 cells assessed as cell-growth inhibition after 48 hrs by MTT assay; format: functional, cell-based; settings: MCF7, 48 h
[2] = Antiproliferative activity against human U87 cells assessed as cell-growth inhibition after 48 hrs by MTT assay; format: functional, cell-based, U-87MG ATCC; settings: U-87 MG
[3] = Antiproliferative activity against human HCT116 cells assessed as cell-growth inhibition after 48 hrs by MTT assay; format: functional, cell-based; settings: HCT-116, 48 h
LoVo = assay: Antiproliferative activity against human LoVo cells assessed as cell-growth inhibition after 48 hrs by MTT assay; format: functional, cell-based

| SMILES | IC50 [1] | IC50 (HeLa) | IC50 (MCF7) | IC50 [2] | IC50 [3] | IC50 (LoVo) |
| --- | --- | --- | --- | --- | --- | --- |
| CC(C)(O)CCC[C@@](C)(O)[C@H]1CC[C@]2(C)[C@@H]1[C@H](O)C[C@@H]1[C@@]3(C)CC[C@H](O)C(C)(C)[C@@H]3CC[C@]12C | 44.2 µM | 48.6 µM | 49.6 µM | 27.5 µM | 33.3 µM | 46.7 µM |
| CC(C)(CCC[C@@](C)(OC(=O)CCl)[C@H]1CC[C@]2(C)[C@@H]1[C@H](O)C[C@@H]1[C@@]3(C)CC[C@H](O)C(C)(C)[C@@H]3CC[C@]12C)OC(=O)CCl | 32.4 µM | 52.6 µM | 12.1 µM | 19.2 µM | 56.1 µM | 61.2 µM |
| CC(=O)O[C@H]1CC[C@]2(C)[C@H]3C[C@@H](OC(C)=O)[C@@H]4[C@@H]([C@](C)(O)CCCC(C)(C)O)CC[C@@]4(C)[C@]3(C)CC[C@H]2C1(C)C | 42.3 µM | 28.9 µM | 23.5 µM | 41.2 µM | 17.1 µM | 35.6 µM |
| C=C(CCCC(C)(C)O)[C@H]1CC[C@]2(C)[C@@H]1[C@H](OC(=O)CCl)C[C@@H]1[C@@]3(C)CC[C@H](OC(=O)CCl)C(C)(C)[C@@H]3CC[C@]12C | 8.3 µM | 21.7 µM | 1.7 µM | 22.8 µM | 1.6 µM | 2.1 µM |
| CC(=O)O[C@@H]1C[C@@H]2[C@@]3(C)CC[C@H](O)C(C)(C)[C@@H]3CC[C@@]2(C)[C@]2(C)CC[C@H]([C@](C)(O)CCCC(C)(C)O)[C@@H]12 | 28.7 µM | 39.9 µM | 15.6 µM | 34.4 µM | 18.9 µM | 36.7 µM |
| CC(C)(O)CCC[C@@](C)(O)[C@H]1CC[C@]2(C)[C@@H]1[C@H](O)C[C@@H]1[C@@]3(C)CC[C@H](OC(=O)CCl)C(C)(C)[C@@H]3CC[C@]12C | 63.6 µM | 68.1 µM | 84.3 µM | 31.9 µM | 20.4 µM | 45.8 µM |
| O=c1[nH]cc(F)c(=O)[nH]1 [FLUOROURACIL] | 35.6 µM | 18.1 µM | – | 38.2 µM | 36.2 µM | 12.7 µM |
| C/C(=C/CCC(C)(C)O)[C@H]1CC[C@]2(C)[C@@H]1[C@H](OC(=O)CCl)C[C@@H]1[C@@]3(C)CC[C@H](OC(=O)CCl)C(C)(C)[C@@H]3CC[C@]12C | 7.1 µM | 37.6 µM | 1.6 µM | 16.6 µM | 2.6 µM | 1.7 µM |
| C/C(=C/CCC(C)(C)O)[C@H]1CC[C@]2(C)[C@@H]1[C@H](OC(=O)CCl)C[C@@H]1[C@@]3(C)CC[C@H](O)C(C)(C)[C@@H]3CC[C@]12C | 42.3 µM | 44.4 µM | 37.8 µM | 34.6 µM | 8.6 µM | 31 µM |
| C=C(CCCC(C)(C)O)[C@H]1CC[C@]2(C)[C@@H]1[C@H](OC(=O)CCl)C[C@@H]1[C@@]3(C)CC[C@H](O)C(C)(C)[C@@H]3CC[C@]12C | 45.2 µM | 56.6 µM | 9.8 µM | 24.6 µM | 22.5 µM | 23.5 µM |
| CC(C)(O)CCC[C@@](C)(O)[C@H]1CC[C@]2(C)[C@@H]1[C@H](OC(=O)CCl)C[C@@H]1[C@@]3(C)CC[C@H](O)C(C)(C)[C@@H]3CC[C@]12C | 30.9 µM | 37.2 µM | 26.2 µM | 7.3 µM | 32.1 µM | 31.1 µM |
| C=C(CCCC(C)(C)O)[C@H]1CC[C@]2(C)[C@@H]1[C@H](O)C[C@@H]1[C@@]3(C)CC[C@H](OC(=O)CCl)C(C)(C)[C@@H]3CC[C@]12C | 44.4 µM | 60.9 µM | 18.9 µM | 14.1 µM | 12.1 µM | 19.1 µM |
| CC(C)(O)CCC[C@@](C)(O)[C@H]1CC[C@]2(C)[C@@H]1[C@H](OC(=O)CCl)C[C@@H]1[C@@]3(C)CC[C@H](OC(=O)CCl)C(C)(C)[C@@H]3CC[C@]12C | 61.8 µM | 68.9 µM | 38.1 µM | 88.1 µM | 45.6 µM | 41 µM |
| C=C(CCCC(C)(C)OC(=O)CCl)[C@H]1CC[C@]2(C)[C@@H]1[C@H](O)C[C@@H]1[C@@]3(C)CC[C@H](O)C(C)(C)[C@@H]3CC[C@]12C | 27.1 µM | 39.7 µM | 10.8 µM | 10.1 µM | 42.8 µM | 40 µM |
| CC(=O)O[C@H]1CC[C@]2(C)[C@H]3C[C@@H](O)[C@@H]4[C@@H]([C@](C)(O)CCCC(C)(C)O)CC[C@@]4(C)[C@]3(C)CC[C@H]2C1(C)C | 34.6 µM | 30.2 µM | 19.5 µM | 32.6 µM | 20.5 µM | 44.9 µM |
| CC(C)(CCC[C@@](C)(O)[C@H]1CC[C@]2(C)[C@@H]1[C@H](O)C[C@@H]1[C@@]3(C)CC[C@H](OC(=O)CCl)C(C)(C)[C@@H]3CC[C@]12C)OC(=O)CCl | 6.9 µM | 27.1 µM | 3.7 µM | 40.1 µM | 38.2 µM | 58.1 µM |
| C/C(=C/CCC(C)(C)OC(=O)CCl)[C@H]1CC[C@]2(C)[C@@H]1[C@H](O)C[C@@H]1[C@@]3(C)CC[C@H](OC(=O)CCl)C(C)(C)[C@@H]3CC[C@]12C | 24.2 µM | 23.4 µM | 7.9 µM | 21.3 µM | 1.2 µM | 1.3 µM |
